Laboratory results from patent US12378224B2 (Dong-A Socio Holdings Co., Ltd., priority 2016, dated 2025).

Molecular target: human c-MER catalytic domain (Homo sapiens (Human), UniProt Q12866)
Test: TR-FRET Kinase Activity Biochemical Assay (LanthaScreen)
Details: 10 uM ATP, 1 hour, kinase not given
How it was run: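 Activity was quantified as the ratio of 495 nm to 520 nm emission (excitation 340 nm) in a LanthaScreen TR-FRET format. The enzyme was the human c-MER catalytic domain, and the substrate was fluorescein-poly-GT. Detection used 2 nM Tb anti-phosphotyrosine antibody for 30 min after termination with 10 mM EDTA.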

Chain of human c-MER catalytic domain (Q12866 587-858): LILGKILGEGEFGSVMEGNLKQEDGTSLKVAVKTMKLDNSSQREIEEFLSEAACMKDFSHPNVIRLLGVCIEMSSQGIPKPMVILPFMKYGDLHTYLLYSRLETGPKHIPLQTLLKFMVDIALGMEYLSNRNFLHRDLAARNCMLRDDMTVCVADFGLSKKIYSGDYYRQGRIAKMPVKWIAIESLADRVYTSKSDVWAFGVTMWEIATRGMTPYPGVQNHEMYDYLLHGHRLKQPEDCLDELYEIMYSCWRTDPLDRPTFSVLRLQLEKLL

**Q.** For `Cn1cc(-c2cnc(N)c(C(=O)N[C@@H]3CCN(C(=O)Oc4cccc(-c5ccc(CN6CCC[C@H](N)C6)cc5)c4)C3)c2)cn1` [Example 332, 4′-(((S)-3-aminopiperidin-1-yl)methyl)-[1,1′-biphenyl]-3-yl (R)-3-(2-amino-5-(1-methyl-1H-pyrazol-4-yl)nicotinamido)pyrrolidine-1-carboxylate], which IC50 is on record?
**A.** 0.01 to 0.1 µM

**Q.** `Cn1cc(-c2cnc(N)c(C(=O)N[C@@H]3CCN(C(=O)Oc4cccc(-c5ccc(CN6CCCC6)cc5)c4)C3)c2)cn1` [Example 333, 4′-(pyrrolidin-1-ylmethyl)-[1,1′-biphenyl]-3-yl (R)-3-(2-amino-5-(1-methyl-1H-pyrazol-4-yl)nicotinamido)pyrrolidine-1-carboxylate] was tested. Which IC50 did it give?
**A.** 0.01 to 0.1 µM

**Q.** Which IC50 does the source give for `Cn1cc(-c2cnc(N)c(C(=O)N[C@@H]3CCN(C(=O)Oc4cccc(-c5ccc(CN6CCCCC6)cc5)c4)C3)c2)cn1` [Example 334, 4′-(piperidin-1-ylmethyl)-[1,1′-biphenyl]-3-yl (R)-3-(2-amino-5-(1-methyl-1H-pyrazol-4-yl)nicotinamido)pyrrolidine-1-carboxylate] here?
**A.** 0.1 to 1 µM

**Q.** With `Cn1cc(-c2cnc(N)c(C(=O)N[C@@H]3CCN(C(=O)Oc4cccc(-c5ccc(CN6CCOCC6)cc5)c4)C3)c2)cn1` [Example 335, 4′-(morpholinomethyl)-[1,1′-biphenyl]-3-yl (R)-3-(2-amino-5-(1-methyl-1H-pyrazol-4-yl)nicotinamido)pyrrolidine-1-carboxylate] as the molecule, how does the IC50 read?
**A.** 0.1 to 1 µM

**Q.** How did the IC50 turn out when `Cn1cc(-c2cnc(N)c(C(=O)N[C@@H]3CCN(C(=O)Oc4cccc(-c5cccc(CN6CC[C@@H](N)C6)c5)c4)C3)c2)cn1` [Example 336, 3′-(((R)-3-aminopyrrolidin-1-yl)methyl)-[1,1′-biphenyl]-3-yl (R)-3-(2-amino-5-(1-methyl-1H-pyrazol-4-yl)nicotinamido)pyrrolidine-1-carboxylate] was run?
**A.** 0.1 to 1 µM

**Q.** Which IC50 does the source give for `Cn1cc(-c2cnc(N)c(C(=O)N[C@@H]3CCN(C(=O)Oc4cccc(-c5cccc(CN6CCC[C@@H](N)C6)c5)c4)C3)c2)cn1` [Example 338, 3′-(((R)-3-aminopiperidin-1-yl)methyl)-[1,1′-biphenyl]-3-yl (R)-3-(2-amino-5-(1-methyl-1H-pyrazol-4-yl)nicotinamido)pyrrolidine-1-carboxylate] here?
**A.** 0.01 to 0.1 µM

**Q.** `Cn1cc(-c2cnc(N)c(C(=O)N[C@@H]3CCN(C(=O)Oc4cccc(-c5cccc(CN6CCC[C@H](N)C6)c5)c4)C3)c2)cn1` [Example 339, 3′-(((S)-3-aminopiperidin-1-yl)methyl)-[1,1′-biphenyl]-3-yl (R)-3-(2-amino-5-(1-methyl-1H-pyrazol-4-yl)nicotinamido)pyrrolidine-1-carboxylate] was tested. Which IC50 did it give?
**A.** 0.1 to 1 µM

**Q.** How did the IC50 turn out when `Cn1cc(-c2cnc(N)c(C(=O)N[C@@H]3CCN(C(=O)Oc4cccc(-c5cccc(CN6CCC(N)CC6)c5)c4)C3)c2)cn1` [Example 340, 3′-((4-aminopiperidin-1-yl)methyl)-[1,1′-biphenyl]-3-yl (R)-3-(2-amino-5-(1-methyl-1H-pyrazol-4-yl)nicotinamido)pyrrolidine-1-carboxylate] was run?
**A.** 0.1 to 1 µM

**Q.** `Cn1cc(-c2cnc(N)c(C(=O)N[C@@H]3CCN(C(=O)Oc4cccc(-c5cccc(CN6CCCNCC6)c5)c4)C3)c2)cn1` [Example 341, 3′-((1,4-diazepan-1-yl)methyl)-[1,1′-biphenyl]-3-yl (R)-3-(2-amino-5-(1-methyl-1H-pyrazol-4-yl)nicotinamido)pyrrolidine-1-carboxylate] was tested. Which IC50 did it give?
**A.** 0.01 to 0.1 µM

**Q.** How did the IC50 turn out when `Cn1cc(-c2cnc(N)c(C(=O)NC3CN(C(=O)c4ccc(-c5ccccc5)cc4)C3)c2)cn1` [Example 344, N-(1-([1,1′-biphenyl]-4-carbonyl)azetidin-3-yl)-2-amino-5-(1-methyl-1H-pyrazol-4-yl)nicotinamide] was run?
**A.** > 1 µM

**Q.** How did the IC50 turn out when `Cn1cc(-c2cnc(N)c(C(=O)N[C@H]3CCN(C(=O)c4ccc(-c5ccccc5)cc4)C3)c2)cn1` [Example 346, (S)—N-(1-([1,1′-biphenyl]-4-carbonyl)pyrrolidin-3-yl)-2-amino-5-(1-methyl-1H-pyrazol-4-yl)nicotinamide] was run?
**A.** > 1 µM

**Q.** For `Cn1cc(-c2cnc(N)c(C(=O)N[C@@H]3CCCN(C(=O)c4ccc(-c5ccccc5)cc4)C3)c2)cn1` [Example 347, (R)—N-(1-([1,1′-biphenyl]-4-carbonyl)piperidin-3-yl)-2-amino-5-(1-methyl-1H-pyrazol-4-yl)nicotinamide], which IC50 is on record?
**A.** > 1 µM

**Q.** How did the IC50 turn out when `Cn1cc(-c2cnc(N)c(C(=O)N[C@H]3CCCN(C(=O)c4ccc(-c5ccccc5)cc4)C3)c2)cn1` [Example 348, (S)—N-(1-([1,1′-biphenyl]-4-carbonyl)piperidin-3-yl)-2-amino-5-(1-methyl-1H-pyrazol-4-yl)nicotinamide] was run?
**A.** > 1 µM

**Q.** With `Cn1cc(-c2cnc(N)c(C(=O)N[C@@H]3CCN(C(=O)c4ccc(-c5ccccc5C=O)cc4)C3)c2)cn1` [Example 355, (R)-2-amino-N-(1-(2′-formyl-[1,1′-biphenyl]-4-carbonyl)pyrrolidin-3-yl)-5-(1-methyl-1H-pyrazol-4-yl)nicotinamide] as the molecule, how does the IC50 read?
**A.** 0.01 to 0.1 µM

**Q.** How did the IC50 turn out when `Cn1cc(-c2cnc(N)c(C(=O)N[C@@H]3CCN(C(=O)c4ccc(-c5cccnc5)cc4)C3)c2)cn1` [Example 356, (R)-2-amino-5-(1-methyl-1H-pyrazol-4-yl)-N-(1-(4-(pyridin-3-yl)benzoyl)pyrrolidin-3-yl)nicotinamide] was run?
**A.** 0.1 to 1 µM

**Q.** For `Cn1cc(-c2cnc(N)c(C(=O)N[C@@H]3CCN(C(=O)c4ccc(-c5c(F)cccc5F)cc4)C3)c2)cn1` [Example 364, (R)-2-amino-N-(1-(2′,6′-difluoro-[1,1′-biphenyl]-4-carbonyl)pyrrolidin-3-yl)-5-(1-methyl-1H-pyrazol-4-yl)nicotinamide], which IC50 is on record?
**A.** 0.01 to 0.1 µM

**Q.** `Cn1cc(-c2cnc(N)c(C(=O)N[C@@H]3CCN(C(=O)c4ccc(-c5ccc(C(F)(F)F)cc5C(F)(F)F)cc4)C3)c2)cn1` [Example 374, (R)-2-amino-N-(1-(2′,4′-bis(trifluoromethyl)-[1,1′-biphenyl]-4-carbonyl)pyrrolidin-3-yl)-5-(1-methyl-1H-pyrazol-4-yl)nicotinamide] was tested. Which IC50 did it give?
**A.** > 1 µM

**Q.** For `CN(C)c1ccc(-c2ccc(C(=O)N3CC[C@@H](NC(=O)c4cc(-c5cnn(C)c5)cnc4N)C3)cc2)cc1` [Example 379, (R)-2-amino-N-(1-(4′-(dimethylamino)-[1,1′-biphenyl]-4-carbonyl)pyrrolidin-3-yl)-5-(1-methyl-1H-pyrazol-4-yl)nicotinamide], which IC50 is on record?
**A.** 0.01 to 0.1 µM

**Q.** With `Cn1cc(-c2cnc(N)c(C(=O)N[C@@H]3CCN(C(=O)c4ccc(-c5cccc(C=O)c5)cc4)C3)c2)cn1` [Example 382, (R)-2-amino-N-(1-(3′-formyl-[1,1′-biphenyl]-4-carbonyl)pyrrolidin-3-yl)-5-(1-methyl-1H-pyrazol-4-yl)nicotinamide] as the molecule, how does the IC50 read?
**A.** 0.01 to 0.1 µM

**Q.** With `Cn1cc(-c2cnc(N)c(C(=O)N[C@@H]3CCN(C(=O)c4ccc(-c5ccccc5)nc4)C3)c2)cn1` [Example 398, (R)-2-amino-5-(1-methyl-1H-pyrazol-4-yl)-N-(1-(6-phenylnicotinoyl)pyrrolidin-3-yl)nicotinamide] as the molecule, how does the IC50 read?
**A.** 0.1 to 1 µM

**Q.** How did the IC50 turn out when `Cc1csc(C(=O)N2CC[C@@H](NC(=O)c3cc(-c4cnn(C)c4)cnc3N)C2)c1` [Example 409, (R)-2-amino-5-(1-methyl-1H-pyrazol-4-yl)-N-(1-(4-methylthiophene-2-carbonyl)pyrrolidin-3-yl)nicotinamide] was run?
**A.** > 1 µM

**Q.** How did the IC50 turn out when `Cn1cc(-c2cnc(N)c(C(=O)N[C@@H]3CCN(C(=O)c4ccc(OC5C=CCCC5)cc4)C3)c2)cn1` (stereo partly drawn) [Example 411, 2-amino-N-((3R)-1-(4-(cyclohex-2-en-1-yloxy)benzoyl)pyrrolidin-3-yl)-5-(1-methyl-1H-pyrazol-4-yl)nicotinamide] was run?
**A.** 0.1 to 1 µM

**Q.** For `Cn1cc(-c2cnc(N)c(C(=O)N[C@@H]3CCN(C(=O)c4ccc(CCBr)cc4)C3)c2)cn1` [Example 413, (R)-2-amino-N-(1-(4-(2-bromoethyl)benzoyl)pyrrolidin-3-yl)-5-(1-methyl-1H-pyrazol-4-yl)nicotinamide], which IC50 is on record?
**A.** > 1 µM

**Q.** With `C=Cc1ccc(C(=O)N2CC[C@@H](NC(=O)c3cc(-c4cnn(C)c4)cnc3N)C2)cc1` [Example 417, (R)-2-amino-5-(1-methyl-1H-pyrazol-4-yl)-N-(1-(4-vinylbenzoyl)pyrrolidin-3-yl)nicotinamide] as the molecule, how does the IC50 read?
**A.** 0.1 to 1 µM

**Q.** For `Cn1cc(-c2cnc(N)c(C(=O)N[C@@H]3CCN(C(=O)Cc4cccc(Br)c4)C3)c2)cn1` [Example 421, (R)-2-amino-N-(1-(2-(3-bromophenyl)acetyl)pyrrolidin-3-yl)-5-(1-methyl-1H-pyrazol-4-yl)nicotinamide], which IC50 is on record?
**A.** > 1 µM

**Q.** Which IC50 does the source give for `Cn1cc(-c2cnc(N)c(C(=O)N[C@@H]3CCN(C(=O)Cc4cccc(-c5ccccc5)c4)C3)c2)cn1` [Example 423, (R)—N-(1-(2-([1,1′-biphenyl]-3-yl)acetyl)pyrrolidin-3-yl)-2-amino-5-(1-methyl-1H-pyrazol-4-yl)nicotinamide] here?
**A.** > 1 µM

**Q.** With `CN1CCN(Cc2ccc(-c3cccc(/C=C/C(=O)N4CC[C@@H](NC(=O)c5cc(-c6cnn(C)c6)cnc5N)C4)c3)cc2)CC1` [Example 431, (R,E)-2-amino-5-(1-methyl-1H-pyrazol-4-yl)-N-(1-(3-(4′-((4-methylpiperazin-1-yl)methyl)-[1,1′-biphenyl]-3-yl)acryloyl)pyrrolidin-3-yl)nicotinamide] as the molecule, how does the IC50 read?
**A.** 0.1 to 1 µM

**Q.** `CN1CCN(CCc2cccc(-c3cccc(C(=O)N4CC[C@@H](NC(=O)c5cc(-c6cnn(C)c6)cnc5N)C4)c3)c2)CC1` [Example 453, (R)-2-amino-5-(1-methyl-1H-pyrazol-4-yl)-N-(1-(3′-(2-(4-methylpiperazin-1-yl)ethyl)-[1,1′-biphenyl]-3-carbonyl)pyrrolidin-3-yl)nicotinamide] was tested. Which IC50 did it give?
**A.** > 1 µM

**Q.** How did the IC50 turn out when `Cn1cc(-c2cnc(N)c(C(=O)N[C@@H]3CCN(C(=O)c4cccc(-c5cccc(N)c5)c4)C3)c2)cn1` [Example 457, (R)-2-amino-N-(1-(3′-amino-[1,1′-biphenyl]-3-carbonyl)pyrrolidin-3-yl)-5-(1-methyl-1H-pyrazol-4-yl)nicotinamide] was run?
**A.** > 1 µM

**Q.** How did the IC50 turn out when `Cn1cc(-c2cnc(N)c(C(=O)N[C@@H]3CCN(C(=O)c4cccc(-c5ccoc5)c4)C3)c2)cn1` [Example 468, (R)-2-amino-N-(1-(3-(furan-3-yl)benzoyl)pyrrolidin-3-yl)-5-(1-methyl-1H-pyrazol-4-yl)nicotinamide] was run?
**A.** > 1 µM
